Reference: PMC10257182, “Discovery of senolytics using machine learning” (Nature Communications, 2023)
Structures can show the parent of a compound that is named as a salt. Where two headings read alike, the source gives them in different places.

Columns and labels:
Assay type in all cases: cell-based, human
[1] = tested on: senescent A549 cells (etoposide-induced); experiment: Nuclei count senolytic assay, therapy-induced senescence (TIS) model, senescent cells; details: Homo sapiens
Procedure, shortened: (§1)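 A549 cells were made senescent with 100 μM etoposide for 48 h, then kept three days in normal media; non-senescent A549 served as controls. Compounds were dosed as a 10-point […] series (10 μM to 10 nM final) for 72 h in triplicate. Hoechst-stained nuclei were counted by imaging after fixation.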

[2] = tested on: non-senescent control A549 cells; experiment: Nuclei count senolytic assay, TIS model, non-senescent control cells; details: Homo sapiens
Procedure, shortened: as §1

[3] = tested on: senescent IMR90 ER:RAS cells (4-OHT-induced); experiment: Nuclei count (Hoechst, high content imaging) senolytic assay, oncogene-induced senescence (OIS) model, senescent cells; details: for viability at 10 µM / viability at 4.677 µM / viability at 2.188 µM / viability at 1 µM / viability at 0.4677 µM / viability at 0.2188 µM / viability at 0.1 µM / viability at 0.04677 µM / viability at 0.02188 µM / viability at 0.01 µM: Homo sapiens
Procedure, shortened: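 Senescence in IMR90 ER:RAS fibroblasts induced with 100 nM 4-OHT; non-senescent and senescent cells treated 72 h with compounds, 10-point […] range 10 μM–10 nM, triplicate. Cells fixed, permeabilised, Hoechst-stained; total nuclei per well counted by high-content imaging versus untreated controls as cell-death readout.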

[4] = A549, read-out: Mean % Cell Survival

C[C@H](CCC(=O)NCCS(=O)(=O)O)[C@H]1CC[C@H]2[C@@H]3[C@H](O)C[C@@H]4C[C@H](O)CC[C@]4(C)[C@H]3C[C@H](O)[C@]12C [Taurocholic acid sodium, taurocholic acid sodium salt hydrate]
viability at 0.01 µM [1, 4]: 103% | viability at 0.0219 µM [1, 4]: 108% | viability at 0.0468 µM [1, 4]: 103% | viability at 0.1 µM [1, 4]: 100% | viability at 0.219 µM [1, 4]: 109% | viability at 0.468 µM [1, 4]: 113% | viability at 1 µM [1, 4]: 112% | viability at 2.19 µM [1, 4]: 106% | viability at 4.68 µM [1, 4]: 109% | viability at 10 µM [1, 4]: 107% | viability at 0.01 µM [2, 4]: 66.6% | viability at 0.0219 µM [2, 4]: 32.6% | viability at 0.0468 µM [2, 4]: 97.7% | viability at 0.1 µM [2, 4]: 29.1% | viability at 0.219 µM [2, 4]: 62.6% | viability at 0.468 µM [2, 4]: 97.8% | viability at 1 µM [2, 4]: 95.9% | viability at 2.19 µM [2, 4]: 69.4% | viability at 4.68 µM [2, 4]: 66.2% | viability at 10 µM [2, 4]: 96.3% | viability at 10 µM ([3]; IMR-90, 72 h, read-out: Mean % Cell Survival, Senescent, log (dose) [M] -5, 72 h, mean n=3 (Fig 3C)): 110% | viability at 4.677 µM ([3]; IMR-90, 72 h, read-out: Mean % Cell Survival, Senescent, log (dose) [M] -5.33, 72 h, mean n=3 (Fig 3C)): 132% | viability at 2.188 µM ([3]; IMR-90, 72 h, read-out: Mean % Cell Survival, Senescent, log (dose) [M] -5.66, 72 h, mean n=3 (Fig 3C)): 115% | viability at 1 µM ([3]; IMR-90, 72 h, read-out: Mean % Cell Survival, Senescent, log (dose) [M] -6, 72 h, mean n=3 (Fig 3C)): 123% | viability at 0.4677 µM ([3]; IMR-90, 72 h, read-out: Mean % Cell Survival, Senescent, log (dose) [M] -6.33, 72 h, mean n=3 (Fig 3C)): 106% | viability at 0.2188 µM ([3]; IMR-90, 72 h, read-out: Mean % Cell Survival, Senescent, log (dose) [M] -6.66, 72 h, mean n=3 (Fig 3C)): 99.8% | viability at 0.1 µM ([3]; IMR-90, 72 h, read-out: Mean % Cell Survival, Senescent, log (dose) [M] -7, 72 h, mean n=3 (Fig 3C)): 96.6% | viability at 0.04677 µM ([3]; IMR-90, 72 h, read-out: Mean % Cell Survival, Senescent, log (dose) [M] -7.33, 72 h, mean n=3 (Fig 3C)): 108% | viability at 0.02188 µM ([3]; IMR-90, 72 h, read-out: Mean % Cell Survival, Senescent, log (dose) [M] -7.66, 72 h, mean n=3 (Fig 3C)): 112% | viability at 0.01 µM ([3]; IMR-90, 72 h, read-out: Mean % Cell Survival, Senescent, log (dose) [M] -8, 72 h, mean n=3 (Fig 3C)): 107% | viability at 0.2188 µM ([3]; IMR-90, read-out: % Cell Survival, Senescent cells, log (dose) [M] -6.66, individual replicates, SUP FIG 4C): 105% | viability at 0.1 µM ([3]; IMR-90, read-out: % Cell Survival, Senescent cells, log (dose) [M] -7, individual replicates, SUP FIG 4C): 101% | viability at 4.677 µM ([3]; IMR-90, read-out: % Cell Survival, Senescent, log (dose) [M] -5.33): 118% | senolytic activity (in words) ([3]; experimental screen, OIS IMR90 ER:RAS): inactive

COC[C@H]1C[C@@H](c2nc(-c3ccc4c(c3)COc3cc5c(ccc6nc([C@@H]7CC[C@H](C)N7C(=O)[C@@H](NC(=O)OC)C(C)C)[nH]c65)cc3-4)c[nH]2)N(C(=O)[C@H](NC(=O)OC)c2ccccc2)C1 [Velpatasvir, velpatasvir, reference compound]
viability at 10 µM ([1]; A549, log (dose) [M] -5, Senescent cells, mean, read-out: Mean % Cell Survival): 114% | viability at 4.68 µM ([1]; A549, log (dose) [M] -5.33, Senescent cells, mean, read-out: Mean % Cell Survival): 105% | viability at 2.19 µM ([1]; A549, log (dose) [M] -5.66, Senescent cells, mean, read-out: Mean % Cell Survival): 120% | viability at 1 µM ([1]; A549, log (dose) [M] -6, Senescent cells, mean, read-out: Mean % Cell Survival): 122% | viability at 0.468 µM ([1]; A549, log (dose) [M] -6.33, Senescent cells, mean, read-out: Mean % Cell Survival): 122% | viability at 0.219 µM ([1]; A549, log (dose) [M] -6.66, Senescent cells, mean, read-out: Mean % Cell Survival): 113% | viability at 0.1 µM ([1]; A549, log (dose) [M] -7, Senescent cells, mean, read-out: Mean % Cell Survival): 112% | viability at 0.0468 µM ([1]; A549, log (dose) [M] -7.33, Senescent cells, mean, read-out: Mean % Cell Survival): 115% | viability at 0.0219 µM ([1]; A549, log (dose) [M] -7.66, Senescent cells, mean, read-out: Mean % Cell Survival): 91.3% | viability at 0.01 µM ([1]; A549, log (dose) [M] -8, Senescent cells, mean, read-out: Mean % Cell Survival): 104% | viability at 10 µM ([2]; A549, log (dose) [M] -5, Control cells, mean, read-out: Mean % Cell Survival): 80.9% | viability at 4.68 µM ([2]; A549, log (dose) [M] -5.33, Control cells, mean, read-out: Mean % Cell Survival): 84.4% | viability at 2.19 µM ([2]; A549, log (dose) [M] -5.66, Control cells, mean, read-out: Mean % Cell Survival): 80.3% | viability at 1 µM ([2]; A549, log (dose) [M] -6, Control cells, mean, read-out: Mean % Cell Survival): 52.9% | viability at 0.468 µM ([2]; A549, log (dose) [M] -6.33, Control cells, mean, read-out: Mean % Cell Survival): 93.4% | viability at 0.219 µM ([2]; A549, log (dose) [M] -6.66, Control cells, mean, read-out: Mean % Cell Survival): 28.7% | viability at 0.1 µM ([2]; A549, log (dose) [M] -7, Control cells, mean, read-out: Mean % Cell Survival): 88.2% | viability at 0.0468 µM ([2]; A549, log (dose) [M] -7.33, Control cells, mean, read-out: Mean % Cell Survival): 89.2% | viability at 0.0219 µM ([2]; A549, log (dose) [M] -7.66, Control cells, mean, read-out: Mean % Cell Survival): 92.1% | viability at 0.01 µM ([2]; A549, log (dose) [M] -8, Control cells, mean, read-out: Mean % Cell Survival): 96.1% | viability at 10 µM ([3]; IMR-90, 72 h, Senescent, log (dose) [M] -5, 72 h, mean n=3 (Fig 3C), read-out: Mean % Cell Survival): 97.8% | viability at 4.677 µM ([3]; IMR-90, 72 h, Senescent, log (dose) [M] -5.33, 72 h, mean n=3 (Fig 3C), read-out: Mean % Cell Survival): 116% | viability at 2.188 µM ([3]; IMR-90, 72 h, Senescent, log (dose) [M] -5.66, 72 h, mean n=3 (Fig 3C), read-out: Mean % Cell Survival): 102% | viability at 1 µM ([3]; IMR-90, 72 h, Senescent, log (dose) [M] -6, 72 h, mean n=3 (Fig 3C), read-out: Mean % Cell Survival): 112% | viability at 0.4677 µM ([3]; IMR-90, 72 h, Senescent, log (dose) [M] -6.33, 72 h, mean n=3 (Fig 3C), read-out: Mean % Cell Survival): 78.2% | viability at 0.2188 µM ([3]; IMR-90, 72 h, Senescent, log (dose) [M] -6.66, 72 h, mean n=3 (Fig 3C), read-out: Mean % Cell Survival): 83.6% | viability at 0.1 µM ([3]; IMR-90, 72 h, Senescent, log (dose) [M] -7, 72 h, mean n=3 (Fig 3C), read-out: Mean % Cell Survival): 88.6% | viability at 0.04677 µM ([3]; IMR-90, 72 h, Senescent, log (dose) [M] -7.33, 72 h, mean n=3 (Fig 3C), read-out: Mean % Cell Survival): 91.5% | viability at 0.02188 µM ([3]; IMR-90, 72 h, Senescent, log (dose) [M] -7.66, 72 h, mean n=3 (Fig 3C), read-out: Mean % Cell Survival): 108% | viability at 0.01 µM ([3]; IMR-90, 72 h, Senescent, log (dose) [M] -8, 72 h, mean n=3 (Fig 3C), read-out: Mean % Cell Survival): 100% | viability at 10 µM ([3]; IMR-90, Senescent cells, log (dose) [M] -5, individual replicates, SUP FIG 4C, read-out: % Cell Survival): 100% | viability at 2.188 µM ([3]; IMR-90, Senescent cells, log (dose) [M] -5.66, individual replicates, SUP FIG 4C, read-out: % Cell Survival): 111% | viability at 1 µM ([3]; IMR-90, Senescent cells, log (dose) [M] -6, individual replicates, SUP FIG 4C, read-out: % Cell Survival): 108% | viability at 0.2188 µM ([3]; IMR-90, Senescent cells, log (dose) [M] -6.66, individual replicates, SUP FIG 4C, read-out: % Cell Survival): 90.3% | viability at 0.1 µM ([3]; IMR-90, Senescent cells, log (dose) [M] -7, individual replicates, SUP FIG 4C, read-out: % Cell Survival): 89% | viability at 0.04677 µM ([3]; IMR-90, Senescent cells, log (dose) [M] -7.33, individual replicates, SUP FIG 4C, read-out: % Cell Survival): 85.1% | viability at 0.02188 µM ([3]; IMR-90, Senescent cells, log (dose) [M] -7.66, individual replicates, SUP FIG 4C, read-out: % Cell Survival): 103% | viability at 0.01 µM ([3]; IMR-90, Senescent cells, log (dose) [M] -8, individual replicates, SUP FIG 4C, read-out: % Cell Survival): 94.1%
